Experimental data as given in publication PMC10304470, “Characterization of the Antimicrobial Activities of Trichoplusia ni Cecropin A as a High-Potency Therapeutic against Colistin-Resistant Escherichia coli” (Pharmaceutics, 2023).
Peptide text beside a SMILES is read from it.

Assays:
[1] = test system: colistin-resistant A. baumannii NMS 1915 (ColRAB 1915); conditions: MH broth, 2 × 10^5 cells/mL, 16 h, 37 °C, OD600, >95% killing
From the text: E. coli (KCTC 1682) was obtained from the Korean Collection for Type Cultures (KCTC, Jeongeup, Republic of Korea), and Acinetobacter baumannii (KCCM 40203) and Pseudomonas aeruginosa (KCCM 11328) from the Korea Culture Center of Microorganisms (KCCM, Seoul, Republic of Korea). Klebsiella pneumoniae (NCCP 16054), colistin-resistant E. coli NMA 1557 (ColREC 1557), NMS 12 (ColREC 12), and colistin-resistant A. baumannii NMS 1915 (ColRAB 1915), as well as colistin-resistant K. pneumoniae NMS 139 (ColRKP 139), were obtained from the National Institute of Health Multidrug Resistant Bacteria Specialized Pathogen Resources Bank (Osong, Republic of Korea).
The peptides dissolved at 10 mg/mL in deionized water were serially diluted from 64 μM to 0.5 μM in 96-well plates using Mueller–Hinton (MH) broth, and bacteria cultured to exponential growth were added at 2 × 10^5 cells/mL. The group of bacteria that grew untreated in the broth was set as the positive control, and the uninoculated broth as the negative control. Dissolved peptides are colorless and equal to the OD value of the medium only. After 16 h incubation at 37 °C, the absorbance at 600 nm was measured using a SpectraMAX microplate reader (Molecular Devices, San Jose, CA, USA).

ColREC 12 = test: Biofilm inhibition assay, crystal violet; type: cell-based, Escherichia coli; conditions: ColREC 12, 2 μM peptide, 16 h
Description: To quantify the biofilm inhibitory activity of each peptide, ColREC 1557 and ColREC 12 were cultured in Luria–Bertani (LB) broth overnight and then sub-cultured in MH broth. Different concentrations of peptide (from 1 μM to 64 μM) were prepared in 96-well plates using MH broth (containing 0.2% glucose) and incubated with bacteria (2 × 10^5 cells/mL) at 37 °C for 16 h. After incubation, the culture medium was removed and methanol was added as a fixative for 15 min. The completely dried plates were stained for 2 h by adding 100 μL of staining solution (0.1% (w/v) crystal violet in 0.25% (v/v) acetic acid). The residual staining solution was gently rinsed off three times using distilled water. Subsequently, 90% ethanol was used to dissolve the dye, and absorbance was measured at 600 nm. The untreated bacterial group was used as a control to compare biofilm production rates.

[2] = test system: LPS-stimulated RAW 264.7 cells; test: Nitrite (NO) production in LPS-stimulated macrophages, Griess; type: cell-based, mouse; conditions: 5 μM peptide, 1 h pretreatment, 20 ng/mL LPS, 16 h
Description: (§1) Murine macrophage RAW 264.7 cells were used to measure the anti-inflammatory activities of peptides. Culture plates (96-well) were seeded at a density of 1 × 10^5 cells/well and stimulated with 20 ng/mL LPS (O111:B4; Sigma-Aldrich) for 16 h after 1 h pretreatment with each concentration of peptide (0.6 to 10 μM). The control is an untreated cell. The culture supernatant was added to an equal volume of Griess reagent (Sigma-Aldrich), and the absorbance was measured at 540 nm. Nitrite production was quantified using a standard curve constructed using NaNO2.

[3] = test system: LPS-stimulated RAW 264.7 cells; test: IL-6 secretion in LPS-stimulated macrophages, ELISA; type: cell-based, mouse; conditions: 5 μM peptide, 1 h pretreatment, 20 ng/mL LPS, 16 h
Description: as §1
(§2) Interleukin-6 (IL-6)-specific enzyme-linked immunosorbent assays (ELISA; R&D Systems, Minneapolis, MN, USA) were performed according to the method specified by the manufacturer. Briefly, cell culture supernatants were added to immune plates treated with the capture antibody, followed by the detection antibody and streptavidin-horseradish peroxidase. For each step, the plates were washed twice with PBS containing 0.05% Tween 20. The plates were incubated with tetramethylbenzidine substrate (Invitrogen, Carlsbad, CA, USA), and the reaction was stopped with 2 N H2SO4 to measure absorbance at 450 nm. A standard graph of each marker was plotted and quantified.

[4] = test system: ColREC 1557-stimulated RAW 264.7 cells; test: IL-6 secretion in ColREC 1557-infected macrophages, ELISA; type: cell-based, mouse; conditions: 1.3 μM peptide, 1 h before ColREC 1557 infection
Description: as §2
To investigate the inflammatory response induced by ColREC 1557, RAW 264.7 cells (1 × 10^5 cells/well) were treated with various concentrations of peptide (0.6 to 10 μM) 1 h before bacterial infection. The control was an untreated cell. ColREC 1557 that had been cultured in LB broth overnight and sub-cultured to the exponential phase were harvested, suspended in DMEM, and used to infect RAW 264.7 cells to a final concentration of 1 × 10^5 cells/well. Subsequent nitrite and IL-6 detection was performed as described in Section 2.15.

Which results are given for `CC[C@H](C)CCCCC(=O)N[C@@H](CCN)C(=O)N[C@H](C(=O)N[C@@H](CCN)C(=O)N[C@H]1CCNC(=O)[C@H]([C@@H](C)O)NC(=O)[C@H](CCN)NC(=O)[C@H](CCN)NC(=O)[C@H](CC(C)C)NC(=O)[C@@H](CC(C)C)NC(=O)[C@H](CCN)NC1=O)[C@@H](C)O` [colistin] (HELM PEPTIDE1{[CC[C@H](C)CCCCC(=O)[*:2]].[Dab].T.[Dab].[Dab].[Dab].[dL].L.[Dab].[Dab].T}$PEPTIDE1,PEPTIDE1,5:R3-11:R2$$$V2.0; N-terminus assumed; bridges inferred)?
Minimal Inhibitory Concentration [1]: >64 µM; inhibition of biofilm formation (ColREC 12): 28.9%; inhibition of NO [2]: over 90%; inhibition of IL-6 secretion [3]: over 90%; inhibition of IL-6 [4]: 18.4%
